From US6812255B2, “Use of aloe-emodin in the treatment of neuroectodermal tumors” (Universita Degli Studi Di Padova, priority 2002, dated 2004)
pEC50: −log10 of the molar value.

Tests used:
[1] = test system: neuroectodermal tumor cells
[2] = test system: hemopoietic progenitors cells from cord blood; assay: Clonogenic test, CFU-GM from cord blood; type: cell-based; details: Homo sapiens, 336 h, methyl cellulose, 1-100 μM, 14 days, read-out: ED50 for the growth of CFU-GM colonies
Procedure: (§1) Clonogenic tests have also been carried out on hemopoietic progenitors cells, obtained from bone marrow (BM ? ) of healthy donors and from cord blood (CB □), and on neuroblastoma cells (SJ-N-KP ▪). The cell have been grown in methyl cellulose with scalar doses of AE in concentrations between 1 and 100 μM for 14 days.

Ewing's sarcoma (TC106) = assay: In vitro cytotoxicity assay, Ewing's sarcoma cells; type: cell-based; details: Homo sapiens, 72 hours exposure, 0 to 100 μM, read-out: ED50 (half-maximal effective dose), cytotoxicity
Source text: (§2) tumors of neuroectodermic origin: neuroblastoma (IMR-32, IMR-5, AF8, SJ-N-KP), pPNET (TC32), Ewing's sarcoma (TC106), melanoma (Mel 23);

[3] = test system: neuroblastoma (IMR-32, IMR-5, AF8, SJ-N-KP); assay: In vitro cytotoxicity assay, neuroblastoma cell lines; type: cell-based; details: Homo sapiens, 72 hours exposure, 0 to 100 μM, read-out: ED50 (half-maximal effective dose), cytotoxicity
Source text: as §2

[4] = In vitro cytotoxicity assay, normal fibroblasts; type: cell-based; details: human, normal lung fibroblasts (MRC5), 72 hours exposure, 0 to 100 μM, read-out: ED50 (half-maximal effective dose), cytotoxicity
Source text: normal cells: human lung fibroblasts (MRC5).

[5] = test system: acute lymphocytic leukemia lines (CEM, CEM VBL); assay: In vitro cytotoxicity assay, leukemia lines; type: cell-based; details: Homo sapiens, 72 hours exposure, 0 to 100 μM, read-out: ED50 (half-maximal effective dose), cytotoxicity
Source text: tumors of different origin: T-cell leukemia (CEM) and T-cell leukemia vinblastine-resistant (CEM VBL), colon adenocarcinoma (LoVo 109) and colon adenocarcinoma doxorubicin-resistant (LoVo DX), cervix epithelioid carcinoma (HeLa);

[6] = Acute and chronic toxicity in Swiss mice; type: in vivo; details: i.p.
Procedure: In the first case assays on acute and chronic toxicity are carried out on Swiss mice (males aged 8-10 weeks) to show possible effects of general toxicity due to AE on weight, neurological and intestinal functions, and hematological parameters. The animals were treated with high doses by intraperitoneal route, between 30 mg/Kg/die and 50 mg/Kg/die, in one administration and with low doses, between 1 mg/Kg/die and 10 mg/Kg/die, for repeated dosages.
The animals were monitored to check possible neurological damages by means of periodically repeated behavioral tests, to check hematic toxicity by means of weekly hemochrome analyses, and to check intestinal toxicity by means of daily faeces analyses. Moreover, the animals have also been weighed twice a week during the whole test. At the end of the tests the animals have been killed and the autopsy has been conducted.

[7] = test system: hemopoietic progenitors cells from bone marrow of healthy donors; assay: Clonogenic test, CFU-GM from bone marrow; type: cell-based; details: Homo sapiens, 336 h, methyl cellulose, 1-100 μM, 14 days, read-out: ED50 for the growth of CFU-GM colonies
Procedure: as §1

With `O=C1c2c(O)cccc2C(C2O[C@H](CO)[C@@H](O)[C@H](O)[C@H]2O)c2cc(CO)cc(O)c21` (stereo partly drawn) [glycosylated form of AE, 10-1,5anhydroglucosyl-1,8-dihydroxy-3-hydroxymethyl-9-anthrone] the cytotoxic effect [1] was “no cytotoxic effect”.

With `O=C1c2cccc(O)c2C(=O)c2c(O)cc(CO)cc21` [AE, 1,8-dihydroxy-3-hydroxymethyl-9.10-anthracenedione] the pEC50 [2] was 3.92, the pEC50 (Ewing's sarcoma (TC106)) was 4.89 and the pEC50 [3] was 6.00. The EC50 at 72 h [4] was 40 µM, the pEC50 [5] was 4.00 and the “general toxicity (weight, neurological, intestinal, hematological)” value ([6]; 30-50 mg/Kg/die single or 1-10 mg/Kg/die repeated) was “No toxicity”. The autopsy findings ([6]; at the end of the tests) was “not shown any damage to the main organs” and the pEC50 [7] was 4.10.
